Tested on: HCT-116
Experiment: Cytotoxicity in human HCT116 cells assessed as reduction in cell viability incubated for 48 hrs by MTS assay
Assay type: functional, cell-based
Conditions: Homo sapiens, HCT-116, 48 h; read-out: IC50; call rule not given here

Compound	IC50 [µM]
COc1cc(-c2c3n(c4c(=O)oc5cc(O)c(OC)cc5c24)CCc2c-3cc(OC)c(OC)c2O)ccc1O	4.3
COc1cc(-c2c3c4cc(OC)c(O)cc4oc(=O)c3n3ccc4cc(OS(=O)(=O)O)c(OC)cc4c23)ccc1O	9.7

Same assay, conditions: hct-116

Compound	IC50
COc1cc(-c2c3c4cc(OC)c(OS(=O)(=O)O)cc4oc(=O)c3n3ccc4cc(OC)c(OC)cc4c23)ccc1O	Not Active
COc1ccc(-c2c3n(c4c(=O)oc5cc(OS(=O)(=O)O)c(OC)cc5c24)CCc2c-3cc(OC)c(OC)c2O)cc1O	Not Active
COc1cc(-c2c3n(c4c(=O)oc5cc(OS(=O)(=O)O)c(OC)cc5c24)CCc2c-3cc(OC)c(OC)c2O)ccc1O	Not Active
COc1ccc(-c2c3n(c4c(=O)oc5cc(OS(=O)(=O)O)c(O)cc5c24)CCc2cc(OC)c(O)cc2-3)cc1O	Not Active
COc1cc(-c2c3n(c4c(=O)oc5cc(OS(=O)(=O)O)c(OC)cc5c24)CCc2cc(OC)c(OC)cc2-3)ccc1O	Not Active
